# Measurements reported in US11554097B2, “Recombinant production of hybrid lipid-biopolymer materials that self-assemble and encapsulate agents” (Duke University, priority 2017, dated 2023).
# What was measured:
# [1] = cited from earlier work
# [2] = Encapsulated drug stability, dialysis against PBS; assay type: physicochemical
# Protocol: Encapsulated drug stability: To measure the encapsulated drug's stability, we selected the encapsulated DOX M-EL[…],80 sample as a model system. […] Free DOX and encapsulated DOX were both made to 400 μM and 250 μL was added with a syringe to small volume Slide-a-Lyzer dialysis cassettes with a 3,500 Da molecular weight cutoff. […] At various time points, 3 mL of the filtrate was removed and replaced with fresh PBS. The fluorescence of the starting sample, filtrate, and retentate were measured in duplicate with a Wallac 1420 Victor3 Plate Reader (Perkin Elmer). Relative fluorescing units were converted to DOX concentrations using a standard curve made using serial dilution of free and encapsulated DOX. […] The cumulative DOX released was calculated and plotted as a function of dialysis time. […] At the end of the one week study, the retentate from each sample was removed and measured.
structure (smiles),measurement,setting,value
"COc1cccc2c1C(=O)c1c(O)c3c(c(O)c1C2=O)C[C@@](O)(C(=O)CO)C[C@@H]3O[C@H]1C[C@H](N)[C@H](O)[C@H](C)O1 [DOXFree, doxorubicin]",octanol-water distribution coefficient (log D pH 7.5),[1],2.4
same,DOX filtered out of cassette,[2]; after a week at 37° C.,99%
same,time to reach equilibrium in dialysis,"[2]; dialysis against PBS, 37° C.",≤ 24 h
